In brackets after ≈: the same amount, converted by molar mass.
What was measured:
[1] = system: hRV-15; test: Rhinovirus type 15 antiviral assay in Hela Rh cells, MTS readout; type: cell-based, Human rhinovirus; conditions: Human rhinovirus sp., HRV15, HeLa Rh, Hela Rh cells; read-out: hRV-15 EC50
[2] = system: hRV-45; test: Rhinovirus type 45 antiviral assay in Hela Rh cells, MTS readout; type: cell-based, Human rhinovirus; conditions: Human rhinovirus sp., HRV45, HeLa Rh, Hela Rh cells; read-out: hRV-45 EC50
[3] = system: hRV-72; test: Rhinovirus type 72 antiviral assay in Hela Rh cells, MTS readout; type: cell-based, Human rhinovirus; conditions: Human rhinovirus sp., HRV72, HeLa Rh, Hela Rh cells; read-out: hRV-72 EC50
[4] = system: hRV-39; test: Rhinovirus type 39 antiviral assay in Hela Rh cells, MTS readout; type: cell-based, Human rhinovirus; conditions: Human rhinovirus sp., HRV39, HeLa Rh, Hela Rh cells; read-out: hRV-39 EC50
[5] = system: hRV-41; test: Rhinovirus type 41 antiviral assay in Hela Rh cells, MTS readout; type: cell-based, Human rhinovirus; conditions: Human rhinovirus sp., HRV41, HeLa Rh, Hela Rh cells; read-out: hRV-41 EC50
[6] = system: hRV-85; test: Rhinovirus type 85 antiviral assay in Hela Rh cells, MTS readout; type: cell-based, Human rhinovirus; conditions: Human rhinovirus sp., HRV85, HeLa Rh, Hela Rh cells; read-out: hRV-85 EC50
[7] = system: hRV-86; test: Rhinovirus type 86 antiviral assay in Hela Rh cells, MTS readout; type: cell-based, Human rhinovirus; conditions: Human rhinovirus sp., HRV86, HeLa Rh, Hela Rh cells; read-out: hRV-86 EC50
[8] = system: hRV-63; test: Rhinovirus type 63 antiviral assay in Hela Rh cells, MTS readout; type: cell-based, Human rhinovirus; conditions: Human rhinovirus sp., HRV63, HeLa Rh, Hela Rh cells; read-out: hRV-63 EC50
[9] = system: hRV-2; test: Rhinovirus type 2 antiviral assay in Hela Rh cells, MTS readout; type: cell-based, Human rhinovirus; conditions: Rhinovirus A, HRV2, HeLa Rh, Hela Rh cells; read-out: hRV-2 EC50
[10] = Cytostatic/cytotoxic effect in Hela Rh cells (rhinovirus methodology, MTS); conditions: human, CC50, Hela Rh cells
[11] = system: hRV-29; test: Rhinovirus type 29 antiviral assay in Hela Rh cells, MTS readout; type: cell-based; conditions: Human rhinovirus sp., HRV29, HeLa Rh, Hela Rh cells; read-out: hRV-29 EC50
[12] = system: hRV-42; test: Rhinovirus type 42 antiviral assay in Hela Rh cells, MTS readout; type: cell-based, Human rhinovirus; conditions: Human rhinovirus sp., HRV42, HeLa Rh, Hela Rh cells; read-out: hRV-42 EC50
[13] = system: hRV-14; test: Rhinovirus type 14 antiviral assay in Hela Rh cells, MTS readout; type: cell-based, Human rhinovirus; conditions: Rhinovirus B, HRV14, HeLa Rh, Hela Rh cells; read-out: hRV-14 EC50
[14] = system: hRV-70; test: Rhinovirus type 70 antiviral assay in Hela Rh cells, MTS readout; type: cell-based, Human rhinovirus; conditions: Human rhinovirus sp., HRV70, HeLa Rh, Hela Rh cells; read-out: hRV-70 EC50
[15] = system: hRV-9; test: Rhinovirus type 9 antiviral assay in Hela Rh cells, MTS readout; type: cell-based, Human rhinovirus; conditions: Human rhinovirus sp., HRV9, HeLa Rh, Hela Rh cells; read-out: hRV-9 EC50

| SMILES | EC50 [1] [µg/mL] | EC50 [2] [µg/mL] | EC50 [3] [µg/mL] | EC50 [4] [µg/mL] | EC50 [5] [µg/mL] | EC50 [6] [µg/mL] | EC50 [7] [µg/mL] | EC50 [8] [µg/mL] | EC50 [9] [µg/mL] | CC50 [10] [µg/mL] | EC50 [11] [µg/mL] | EC50 [12] [µg/mL] | EC50 [13] [µg/mL] | EC50 [14] [µg/mL] | EC50 [15] [µg/mL] |
| --- | --- | --- | --- | --- | --- | --- | --- | --- | --- | --- | --- | --- | --- | --- | --- |
| COC(=O)c1ccc(OCC(=O)N2CCN(c3nc(N)nc4sc(CCc5ccc(F)cc5)nc34)CC2)cc1 [Example 225, methyl 4-(2-(4-(5-amino-2-(4-fluorophenethyl)thiazolo[5,4-d]pyrimidin-7-yl)piperazin-1-yl)-2-oxoethoxy)benzoate] | > 50 | 43.1 (≈ 78.3 µM) | > 50 | > 50 | > 50 | 14.6 (≈ 26.5 µM) | > 50 | 39.7 (≈ 72.1 µM) | 1.12 (≈ 2.03 µM) | 5.34 (≈ 9.7 µM) | > 50 | > 50 | > 50 | > 50 | > 50 |
| CCCCCc1nc2c(N3CCN(C(=O)COc4ccc(OC)cc4)CC3)nc(N)nc2s1 [Example 296, 1-(4-(5-amino-2-pentylthiazolo[5,4-d]pyrimidin-7-yl)piperazin-1-yl)-2-(4-methoxyphenoxy)ethanone] | 0.44 (≈ 0.935 µM) | 4.13 (≈ 8.78 µM) | 26.5 (≈ 56.3 µM) | 0.04 (≈ 0.085 µM) | 7.02 (≈ 14.9 µM) | 0.64 (≈ 1.36 µM) | 17.8 (≈ 37.7 µM) | 0.71 (≈ 1.51 µM) | 0.19 (≈ 0.404 µM) | > 50 | 0.09 (≈ 0.191 µM) | 4.25 (≈ 9.03 µM) | 9.93 (≈ 21.1 µM) | 2.53 (≈ 5.38 µM) | 0.2 (≈ 0.425 µM) |
| COc1ccc(OCC(=O)N2CCN(c3nc(N)nc4sc(CCCCc5ccc(F)cc5)nc34)CC2)cc1 [Example 293, 1-(4-(5-amino-2-(4-(4-fluorophenyl)butyl)thiazolo[5,4-d]pyrimidin-7-yl)piperazin-1-yl)-2-(4-methoxyphenoxy)ethanone] | > 50 | 35.4 (≈ 64.2 µM) | > 50 | > 50 | > 50 | 11.5 (≈ 20.9 µM) | > 50 | 21.2 (≈ 38.4 µM) | 12.4 (≈ 22.5 µM) | > 50 | > 50 | > 50 | > 50 | > 50 | > 50 |
| CC(=O)c1ccc(OCC(=O)N2CCN(c3nc(N)nc4sc(CCc5ccc(F)cc5)nc34)CC2)cc1 [Example 227, 2-(4-acetylphenoxy)-1-(4-(5-amino-2-(4-fluorophenethyl)thiazolo[5,4-d]pyrimidin-7-yl)piperazin-1-yl)ethanone] | > 50 | 35.4 (≈ 66.1 µM) | > 50 | 0.3 (≈ 0.561 µM) | > 50 | 2.19 (≈ 4.1 µM) | 4.59 (≈ 8.59 µM) | 30.6 (≈ 57.2 µM) | 0.26 (≈ 0.486 µM) | > 50 | 4.8 (≈ 8.98 µM) | > 50 | > 50 | > 50 | 0.56 (≈ 1.05 µM) |
| Cc1ccc(CCc2nc3c(N4CCN(C(=O)COc5ccc(Br)cc5)CC4)nc(N)nc3s2)cc1 [Example 258, 1-(4-(5-amino-2-(4-methylphenethyl)thiazolo[5,4-d]pyrimidin-7-yl)piperazin-1-yl)-2-(4-bromophenoxy)ethanone] | > 50 | 35.4 (≈ 62.3 µM) | > 50 | 13 (≈ 22.9 µM) | > 50 | 8.33 (≈ 14.7 µM) | > 50 | 34 (≈ 60 µM) | 9.58 (≈ 16.9 µM) | 46.2 (≈ 81.5 µM) | > 50 | > 50 | > 50 | > 50 | > 50 |
| COc1ccc(OCC(=O)N2CCN(c3nc(N)nc4sc(CCc5ccc(OC)c(OC)c5)nc34)CC2)cc1 [Example 257, 1-(4-(5-amino-2-(3,4-dimethoxyphenethyl)thiazolo[5,4-d]pyrimidin-7-yl)piperazin-1-yl)-2-(4-methoxyphenoxy)ethanone] | 46.2 (≈ 81.9 µM) | 30.8 (≈ 54.6 µM) | 5.95 (≈ 10.5 µM) | 2.26 (≈ 4 µM) | 31.1 (≈ 55.1 µM) | 8.05 (≈ 14.3 µM) | 4.79 (≈ 8.48 µM) | 26.4 (≈ 46.8 µM) | 3.01 (≈ 5.33 µM) | > 50 | 14.9 (≈ 26.3 µM) | 5.09 (≈ 9.01 µM) | 2.32 (≈ 4.11 µM) | 7.1 (≈ 12.6 µM) | 3.69 (≈ 6.53 µM) |
